Measured values as given in patent US20110195997A1, “Dicarboxamide Derivatives” (priority 2006, published 2011).

Target: T1, human factor Xa (Homo sapiens, UniProt P00742)
T1 construct: Factor Xa is a serine endopeptidase composed of two disulfide-linked subunits; purchased Enzyme Research Laboratories
Experiment: chromogenic peptide substrate assay, inhibition of factor Xa
Type: biochemical
Conditions: human factor Xa 3 nM, chromogenic substrate S-2222, pH 7.8, room temperature; apparent Ki from IC50 by Cheng-Prusoff
Experimental: Factor Xa activity was measured spectrophotometrically in microtiter plates in a final volume of 150 μl using the following conditions: Inhibition of human factor Xa (Enzyme Research Laboratories) was tested at an enzyme concentration of 3 nM using the chromogenic substrate S-2222 (Chromogenix AB, Mölndal, Sweden) at […]. The reaction kinetics of the enzyme and the substrate were linear with both time and the enzyme concentration. The inhibitors were dissolved in DMSO and tested at various concentrations up to 100 μM. The inhibitors were diluted using HNPT buffer consisting of HEPES 100 mM, NaCl 140 mM, PEG 6000 0.1% and Tween 80 0.02%, pH 7.8. […] The velocity of the reaction was determined by the autoreader from the slope of the linear regression fit to 7 time points (1 minute). The initial velocity for each inhibitor concentration was determined by the slope of at least 4 time points in the linear phase by a linear regression fit […]. Apparent dissociation constants Ki were calculated according to Cheng and Prusoff [Cheng, Y. C.; Prusoff, W. H. Relationship between the inhibition constant (Ki) and the concentration of the inhibitor that causes 50 percent inhibition (IC50) of an enzyme reaction. Biochem. Pharmacol. 1973, 22, 3099-3108.] based on the IC50 and the respective Km, determined previously (Ki=IC50/(1+S/Km)). […]

T1 sequence (P00742 235-488 limits assumed): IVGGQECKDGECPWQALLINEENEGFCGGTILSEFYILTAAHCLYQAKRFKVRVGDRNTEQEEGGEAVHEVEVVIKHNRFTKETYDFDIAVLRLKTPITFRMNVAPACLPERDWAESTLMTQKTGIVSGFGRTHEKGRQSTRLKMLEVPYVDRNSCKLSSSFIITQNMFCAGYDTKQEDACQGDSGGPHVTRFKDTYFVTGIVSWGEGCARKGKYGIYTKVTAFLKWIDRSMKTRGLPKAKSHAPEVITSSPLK
T1 sequence (P00742 41-179 partner limits assumed): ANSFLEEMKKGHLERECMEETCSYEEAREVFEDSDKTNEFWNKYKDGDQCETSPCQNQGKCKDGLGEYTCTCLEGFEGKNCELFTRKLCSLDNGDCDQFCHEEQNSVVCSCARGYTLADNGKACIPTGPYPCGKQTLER

## O=C(Nc1ccc(-n2ccccc2=O)cc1F)[C@H]1C[C@H]1C(=O)Nc1ccc(Cl)cn1 (single isomer, unassigned) [Example 1.4 (1S,2R) enantiomer]
  Ki: 0.003 µM
